Results published in US20240041042A1, “1-(PYRIDYL)-5-AZINYLPYRAZOLE DERIVATIVES, AND THEIR USE FOR CONTROL OF UNDESIRED PLANT GROWTH” (Bayer Aktiengesellschaft, priority 2020, published 2024).

Legend:
Type in all cases: in vivo
Avena fatua (AVEFA) [1] = test: Post-emergence herbicidal action against AVEFA; conditions: 320 g/ha, visual rating about 3 weeks after treatment
How it was run: (§1)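 Greenhouse plants sprayed at the one-leaf stage, 2–3 weeks after sowing, with WP or EC formulations plus 0.5% additive at 600 l/ha water. Activity rated visually after about 3 weeks versus untreated controls (100% = dead, 0% = like control), at 320 g/ha or lower.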

[2] = tested on: Matricaria inodora (MATIN); test: Post-emergence herbicidal action against MATIN; conditions: dosage 320 g/ha
How it was run: as §1

[3] = tested on: Amaranthus retroflexus (AMARE); test: Pre-emergence herbicidal action against AMARE; conditions: visual scoring after about 3 weeks vs untreated controls
How it was run: (§2)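 Pre-emergence soil-surface spray of compound, formulated as wettable powder or emulsion concentrate, in aqueous suspension or emulsion with 0.5% additive (600 l/ha; rate 320 g/ha or less). Activity rated visually after roughly 3 weeks in the greenhouse as a percentage of untreated controls, 0% meaning no difference.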

[4] = tested on: Digitaria sanguinalis (DIGSA); test: Post-emergence herbicidal action against DIGSA; conditions: visual rating about 3 weeks after treatment
How it was run: as §1

[5] = tested on: Digitaria sanguinalis (DIGSA); test: Pre-emergence herbicidal action against DIGSA
How it was run: as §2

Lolium rigidum (LOLRI) [6] = test: Pre-emergence herbicidal action against LOLRI
How it was run: as §2

[7] = tested on: Echinochloa crus-galli (ECHCG); test: Pre-emergence herbicidal action against ECHCG
How it was run: as §2

[8] = tested on: Alopecurus myosuroides (ALOMY); test: Pre-emergence herbicidal action against ALOMY; conditions: scored visually after about 3 weeks, 100% = plants have died
How it was run: as §2

Viola tricolor (VIOTR) [9] = test: Pre-emergence herbicidal action against VIOTR
How it was run: as §2

Setaria viridis (SETVI) [10] = test: Pre-emergence herbicidal action against SETVI
How it was run: as §2

Avena fatua (AVEFA) [11] = test: Pre-emergence herbicidal action against AVEFA; conditions: 320 g/ha, visual scoring after about 3 weeks vs untreated controls
How it was run: as §2

[12] = tested on: Polygonum convolvulus (POLCO); test: Pre-emergence herbicidal action against POLCO; conditions: dosage 320 g/ha
How it was run: as §2

[13] = tested on: Pharbitis purpurea (PHBPU); test: Post-emergence herbicidal action against PHBPU
How it was run: as §1

[14] = tested on: Abutilon theophrasti (ABUTH); test: Pre-emergence herbicidal action against ABUTH; conditions: Dosage column 320 g/ha (title prints 3200 g/ha); scored visually after about 3 weeks; 100% = plants have died
How it was run: as §2

[15] = tested on: Pharbitis purpurea (PHBPU); test: Pre-emergence herbicidal action against PHBPU
How it was run: as §2

[16] = tested on: Verconica persica (VERPE); test: Pre-emergence herbicidal action against VERPE; conditions: dosage 320 g/ha
How it was run: as §2

[17] = tested on: Echinochloa crus-galli (ECHCG); test: Post-emergence herbicidal action against ECHCG
How it was run: as §1

Lolium rigidum (LOLRI) [18] = test: Post-emergence herbicidal action against LOLRI
How it was run: as §1

[19] = tested on: Polygonum convolvulus (POLCO); test: Post-emergence herbicidal action against POLCO; conditions: dosage 320 g/ha
How it was run: as §1

Viola tricolor (VIOTR) [20] = test: Post-emergence herbicidal action against VIOTR; conditions: 320 g/ha
How it was run: as §1

Setaria viridis (SETVI) [21] = test: Post-emergence herbicidal action against SETVI; conditions: dosage 320 g/ha
How it was run: as §1

[22] = tested on: Matricaria inodora (MATIN); test: Pre-emergence herbicidal action against MATIN
How it was run: as §2

SMILES: COC(=O)[C@@H](C)Oc1nn(-c2nc(F)ccc2F)c(-c2cncc(F)c2)c1Cl [Example I-154]
- Post-emergence action against AVEFA in % (Avena fatua (AVEFA) [1]): 80%
- Post-emergence action against MATIN in % [2]: 80%
- Pre-emergence action against AMARE in % ([3]; 80 g/ha): 90%
- Pre-emergence action against AMARE in % ([3]; 320 g/ha): 100%
- Post-emergence action against DIGSA in % ([4]; 80 g/ha): 80%
- Post-emergence action against DIGSA in % ([4]; 320 g/ha): 90%
- Pre-emergence action against DIGSA in % ([5]; 80 g/ha, visual scoring after about 3 weeks vs untreated controls): 90%
- Pre-emergence action against DIGSA in % ([5]; dosage 320 g/ha): 100%
- Pre-emergence action against LOLRI in % (Lolium rigidum (LOLRI) [6]; dosage 80 g/ha): 90%
- Pre-emergence action against LOLRI in % (Lolium rigidum (LOLRI) [6]; dosage 320 g/ha): 100%
- Pre-emergence action against ECHCG in % ([7]; dosage 80 g/ha): 90%
- Pre-emergence action against ECHCG in % ([7]; dosage 320 g/ha): 100%
- Pre-emergence action against ALOMY ([8]; 80 g/ha): 80%
- Pre-emergence action against ALOMY ([8]; 320 g/ha): 90%
- Pre-emergence action against VIOTR in % (Viola tricolor (VIOTR) [9]; 320 g/ha, Viola tricolor): 100%
- Pre-emergence action against VIOTR in % (Viola tricolor (VIOTR) [9]; dosage 80 g/ha): 100%
- Pre-emergence action against SETVI in % (Setaria viridis (SETVI) [10]; dosage 80 g/ha): 90%
- Pre-emergence action against SETVI in % (Setaria viridis (SETVI) [10]; dosage 320 g/ha): 100%
- Pre-emergence action against AVEFA in % (Avena fatua (AVEFA) [11]): 80%
- Pre-emergence action against POLCO in % [12]: 90%
- Post-emergence action against PHBPU in % ([13]; dosage 80 g/ha): 80%
- Post-emergence action against PHBPU in % ([13]; dosage 320 g/ha): 90%
- Pre-emergence action against ABUTH [14]: 90%
- Pre-emergence action against PHBPU in % ([15]; dosage 80 g/ha): 80%
- Pre-emergence action against PHBPU in % ([15]; dosage 320 g/ha): 90%
- Pre-emergence action against VERPE in % [16]: 100%
- Post-emergence action against ECHCG in % ([17]; dosage 80 g/ha): 80%
- Post-emergence action against ECHCG in % ([17]; dosage 320 g/ha): 80%
- Post-emergence action against LOLRI in % (Lolium rigidum (LOLRI) [18]; dosage 80 g/ha): 80%
- Post-emergence action against LOLRI in % (Lolium rigidum (LOLRI) [18]; dosage 320 g/ha): 90%
- Post-emergence action against POLCO in % [19]: 80%
- Post-emergence action against VIOTR in % (Viola tricolor (VIOTR) [20]): 80%
- Post-emergence action against SETVI in % (Setaria viridis (SETVI) [21]): 80%
- Pre-emergence action against MATIN in % ([22]; dosage 80 g/ha): 90%
- Pre-emergence action against MATIN in % ([22]; dosage 320 g/ha): 100%
